Laboratory results taken from patent US20060079512A1, “Dibenzodiazepinone analogues, processes for their production and their use as pharmaceuticals” (Ecopia BioSciences, Inc., priority 2003, published 2006).
Like-named read-outs stand apart in the source and are kept apart here. Blank lines part the entries; values can stand above or below the compound they belong to.

How the values were obtained:
[1] = Pharmacokinetic profile, plasma concentrations by LC/MS/MS; format: in vivo, female Crl: CD1 mice; details: 30 mg/kg; for half-life: plasma; for Cmax / AUC: mice plasma; for Cmax: read-out: observed Cmax
Description: (§1) Compounds 1 and 2 were separately dissolved in ethanol (5%), Polysorbate 80 (15%), PEG 400 (5%) and dextrose (5%) at a final concentration of 6 mg/ml (for all parenteral administration routes). For oral administration, Compound 1 was solubilized in Cremophor® EU Ethanol (50%:50%) at a final concentration of 6 mg/ml. Prior to dosing, animals (female Crl: CD1 mice; 6 weeks of age, 22-24 g) were weighed, randomly selected and assigned to the different treatment groups. Compound 1 was administered by the intravenous (iv), subcutaneous (sc), intraperitoneal (ip), or oral (po) route to the assigned animals. Compound 2 was administered by the intravenous (iv), or intraperitoneal (ip) route to the assigned animals. The dosing volume of Compounds 1 and 2 was 5 mL per kg body weight. Animals were anesthetized with 5% isoflurane prior to bleeding. Blood was collected into microtainer tubes containing the anticoagulant K2EDTA by cardiac puncture from each of 4 animals per bleeding timepoint (2 min, 5 min, 15 min, 30 min, 1 h, 2 h, 4 h and 8 h). Following collection, the samples were centrifuged and the plasma obtained from each sample was recovered and stored frozen (at approximately −80° C.) pending analysis. At the 5 min and 30 min time points, the following organs were harvested from each animal: brain, lungs, skeletal muscle, fat tissue, kidneys, spleen, thymus and liver. Tissues were frozen (at approximately −80° C.) pending analysis. Samples were analysed by LC/MS/MS.
Plasma values of Compounds 1 and 2 falling below the limit of quantitation (LOQ) were set to zero. […] The following pharmacokinetic parameters were calculated: area under the plasma concentration versus time curve from time zero to the last measurable concentration time point (AUC0-t), area under the plasma concentration versus time curve extrapolated to infinity (AUCinf), maximum observed plasma concentration (Cmax), time of maximum plasma concentration (tmax), apparent first-order terminal elimination rate constant (kel), apparent first-order terminal elimination half-life will be calculated as 0.693/kel (t1/2). The systemic clearance (CL) of Compound 1 after intravenous administration was calculated using Dose/AUCinf. Pharmacokinetic parameters were calculated using Kinetica™ 4.1.1 (InnaPhase Corporation, Philadelphia, Pa.).

[2] = Tissue concentrations 30 min after administration; format: in vivo, female Crl: CD1 mice; details: 30 mg/kg
Description: as §1, with “At the 5 min and 30 min time points, the following organs were harvested from each animal: brain, lungs, skeletal muscle, fat tissue, kidneys, spleen, thymus and liver. Tissues were frozen (at approximately −80° C.) pending analysis.” left out, “LC/MS/MS. […]” for “LC/MS/MS.”

[3] = system: MDA-MB-231 (mammary gland adenocarcinoma); experiment: In vitro cytotoxic activity (GI50), method (b), propidium iodide; format: cell-based; details: Homo sapiens, 96 hrs
Description: (§2) Row H was filled wih medium only (150 μL, negative control-medium).

SF268 (CNS) [4] = experiment: as above; format: cell-based; details: Homo sapiens, SF-268, 96 hrs
Description: as §2

[5] = system: PC-3 (prostate adenocarcinoma); experiment: as above; format: cell-based; details: 96 hrs
Description: as §2

[6] = system: HT-29 (colorectal carcinoma); experiment: as above; format: cell-based; details: Homo sapiens, 96 hrs
Description: as §2

[7] = system: HT-29, SF-268, PC-3, MDA-MB-231; experiment: Average GI50 over the four cell lines, method (b); format: cell-based; details: for GI50: values > 30 not considered
Description: as §2

[8] = system: MDA-MB-231 (mammary gland adenocarcinoma); experiment: In vitro cytotoxic activity (GI50), method (a), propidium iodide; format: cell-based; details: Homo sapiens, MDA-MB-231; method (a), 96 hours; read-out: MDA-MB-231 (GI50 μM)
Description: (§3) Compounds were dissolved at 10 mM in DMSO. Dilution in vehicle to concentrations of 30, 10, 3, 1 and 0.3 μM were prepared immediately before assays. Depending on the cell line's growth characteristics, 4000-10000 cells were plated in two 96-wells pates (day 0) and incubated for 16 hours. The following day, propidium iodide was added to one of the two plates and fluorescence measured (Tz). Test compounds were added to the second plate, as well as vehicle control, and cells further incubated for 96 hours. Each compound was tested at each concentration and in triplicates. The equivalent cell number was determined after adding propidium iodide by measuring the signal by fluorescence (C for control).

SF268 (CNS) [9] = experiment: as above; format: cell-based; details: Homo sapiens, SF-268; method (a), 96 hours; read-out: SF-268 (GI50 μM)
Description: as §3

[10] = system: PC-3 (prostate adenocarcinoma); experiment: as above; format: cell-based; details: method (a), 96 hours; read-out: PC-3 (GI50 μM)
Description: as §3

[11] = system: HT-29 (colorectal carcinoma); experiment: as above; format: cell-based; details: Homo sapiens, HT-29; method (a), 96 hours; read-out: HT-29 (GI50 μM)
Description: as §3

[12] = female, Crl: CD1, mouse, iv, read-out: AUC

half-life ([1]; female, Crl: CD1, mouse, iv, I.V., read-out: half life t1/2 α): 0.0767 h
half-life ([1]; female, Crl: CD1, mouse, iv, I.V., read-out: half life t1/2 β (converted)): 2.56 h
Cmax ([1]; female, Crl: CD1, mouse, ip): 2.25 µg/mL
AUC [1, 12]: 40.4 µM·h
Cmax ([1]; female, Crl: CD1, mouse, iv): 130 µg/mL
AUC ([1]; ip): 9.5 ˜M·h
drug levels after oral administration ([1]; oral): moderate but sustained drug levels
orally bioavailable level ([1]; oral): 5-8%
tissue distribution ([2]; iv and ip dosing): well distributed
tissue levels ([2]; sc dosing, compared with ip): significantly lower
GI50 [7]: 4.45 µM
Compound: CC(C)=CCC/C(C)=C/CC/C(C)=C/CN1C(=O)c2cccc(O)c2Nc2c(O)cc(O)cc21 [Compound 1, 10-farnesyl-4,6,8-trihydroxy-5,10-dihydrodibenzo[b,e][1,4]diazepin-11-one]
GI50 [3]: 3.18 µM
GI50 (SF268 (CNS) [4]): 1.55 µM
GI50 [5]: 3.76 µM
GI50 [6]: 9.33 µM
GI50 [8]: 1.79 µM
GI50 (SF268 (CNS) [9]): 1.96 µM
GI50 [10]: 1.95 µM
GI50 [11]: 11.2 µM

Compound: CC(C)=CCC/C(C)=C/CC/C(C)=C/CN1C(=O)c2cccc(O)c2N(C)c2c(O)cc(O)cc21 [Compound 2, 10-farnesyl-4,6,8-trihydroxy-5-methyl-5,10-dihydro-dibenzo[b,e][1,4]diazepin-11-one]
half-life ([1]; female, Crl: CD1, mouse, ip, IP administration, read-out: half life (t1/2)): > 40 h
half-life ([1]; female, Crl: CD1, mouse, iv, IV administration, read-out: half life (t1/2)): > 40 h
AUC ([1]; female, Crl: CD1, mouse, ip, read-out: AUC): 58.8 µM·h
Cmax ([1]; female, Crl: CD1, mouse, ip): 5.8 µg/mL
AUC [1, 12]: 92.1 µM·h
Cmax ([1]; female, Crl: CD1, mouse, iv): 105 µg/mL
GI50 [3]: 0.24 µM
GI50 (SF268 (CNS) [4]): 0.12 µM
GI50 [5]: 0.45 µM
GI50 [6]: 0.65 µM
anticancer activity compared with Compound 1 ([7]; four cell lines): better anticancer activity than Compound 1
GI50 [7]: 0.36 µM
NOAEL (in vivo; CD-1 nu/nu, mouse, in vivo, ip): 30 mg/kg
NOAEL (in vivo; CD-1 nu/nu, mouse, in vivo, iv): 75 mg/kg
MTD (in vivo; CD-1 nu/nu, mouse, in vivo, ip, acute): ≥ 50 mg/kg
weight losses (in vivo; for several days post-injection): about 7%
